Laboratory results from PubChem BioAssay (NCI).
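Five compound concentrations were applied to cells in 96-well plates for 48 hours; endpoints were derived by simple linear interpolation of the resulting dose-response curve. GI50 is the concentration that inhibits growth by half. At the TGI there is no net growth.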

Assays:
Assay in all cases: NCI-60 cell line screen, 48 h
[1] = tested on: A498 renal
[2] = tested on: ACHN renal
[3] = tested on: BT-549 breast
[4] = tested on: CAKI-1 renal
[5] = tested on: CCRF-CEM leukemia
[6] = tested on: COLO 205 colon
[7] = tested on: DU-145 prostate
[8] = tested on: EKVX NSCLC
[9] = tested on: HCT-15 colon
[10] = tested on: HL-60(TB) leukemia
[11] = tested on: HT29 colon
[12] = tested on: K-562 leukemia
[13] = tested on: MCF7 breast
[14] = tested on: MOLT-4 leukemia
[15] = tested on: NCI-H226 lung
[16] = tested on: NCI/ADR-RES ovarian
[17] = tested on: OVCAR-3 ovarian
[18] = tested on: OVCAR-4 ovarian
[19] = tested on: OVCAR-5 ovarian
[20] = tested on: PC-3 prostate
[21] = tested on: RPMI-8226 leukemia
[22] = tested on: RXF 393 renal
[23] = tested on: SF-268 CNS
[24] = tested on: SF-295 CNS
[25] = tested on: SK-MEL-2 melanoma
[26] = tested on: SK-OV-3 ovarian
[27] = tested on: SNB-75 CNS
[28] = tested on: SR leukemia
[29] = tested on: TK-10 renal
[30] = tested on: UO-31 renal
[31] = tested on: 786-0 renal
[32] = tested on: A549 NSCLC
[33] = tested on: HCC-2998 colon
[34] = tested on: HOP-62 NSCLC
[35] = tested on: HOP-92 NSCLC
[36] = tested on: IGROV1 ovarian
[37] = tested on: KM12 colon
[38] = tested on: LOX IMVI melanoma
[39] = tested on: M14 melanoma
[40] = tested on: MALME-3M melanoma
[41] = tested on: MDA-MB-231 breast
[42] = tested on: MDA-MB-435
[43] = tested on: OVCAR-8 ovarian
[44] = tested on: SF-539 CNS
[45] = tested on: SK-MEL-28 melanoma
[46] = tested on: SK-MEL-5 melanoma
[47] = tested on: SN12C renal
[48] = tested on: SNB-19 CNS
[49] = tested on: T-47D breast
[50] = tested on: U251 CNS
[51] = tested on: UACC-257 melanoma
[52] = tested on: UACC-62 melanoma

## C=CC[PH+](c1ccccc1)c1ccccc1.C=CC[PH+](c1ccccc1)c1ccccc1.[Pt+2].[S-]c1nc2ccccc2[nH]1.[S-]c1nc2ccccc2[nH]1
[1]
  GI50: 1.72 µM
  TGI: 4.98 µM
[2]
  GI50: 3.89 µM
  TGI: > 100 µM
[3]
  GI50: 2.11 µM
  TGI: 5.54 µM
[4]
  GI50: 2.54 µM
  TGI: 12.8 µM
[5]
  GI50: 1.9 µM
  TGI: > 100 µM
[6]
  GI50: 2.02 µM
  TGI: 6.56 µM
[7]
  GI50: 3.33 µM
  TGI: 42.8 µM
[8]
  GI50: 2.36 µM
  TGI: > 100 µM
[9]
  GI50: 6.34 µM
  TGI: > 100 µM
[10]
  GI50: 2.51 µM
  TGI: 7.32 µM
[11]
  GI50: 2.62 µM
  TGI: > 100 µM
[12]
  GI50: 0.62 µM
  TGI: > 100 µM
[13]
  GI50: 2.57 µM
  TGI: 9.91 µM
[14]
  GI50: 2.87 µM
  TGI: > 100 µM
[15]
  GI50: 1.95 µM
  TGI: 4.48 µM
[16]
  GI50: 47.1 µM
  TGI: > 100 µM
[17]
  GI50: 1.9 µM
  TGI: 5.16 µM
[18]
  GI50: 2.56 µM
  TGI: > 100 µM
[19]
  GI50: 2.14 µM
  TGI: 5.42 µM
[20]
  GI50: 1.62 µM
  TGI: 5.58 µM
[21]
  GI50: 0.401 µM
  TGI: 3.22 µM
[22]
  GI50: 2.61 µM
  TGI: 7.06 µM
[23]
  GI50: 2.77 µM
  TGI: > 100 µM
[24]
  GI50: 2.82 µM
  TGI: 8.44 µM
[25]
  GI50: 2.25 µM
  TGI: 5.36 µM
[26]
  GI50: 3.16 µM
  TGI: 27.4 µM
[27]
  GI50: 1.2 µM
  TGI: 3.89 µM
[28]
  GI50: 2.71 µM
  TGI: > 100 µM
[29]
  GI50: 3.29 µM
  TGI: 67.4 µM
[30]
  GI50: 2.58 µM
  TGI: 36.5 µM

## Cc1ccc2nc(CN(CCN(Cc3nc4ccc(C)cc4[nH]3)Cc3nc4ccc(C)cc4[nH]3)Cc3nc4ccc(C)cc4[nH]3)[nH]c2c1
[31]
  GI50: 1.75 µM
  TGI: 3.15 µM
[1]
  GI50: 1.71 µM
  TGI: 3.14 µM
[32]
  GI50: 1.86 µM
  TGI: 3.54 µM
[2]
  GI50: 1.6 µM
  TGI: 2.94 µM
[4]
  GI50: 1.26 µM
  TGI: 2.51 µM
[6]
  GI50: 1.7 µM
  TGI: 3.15 µM
[7]
  GI50: 1.79 µM
  TGI: 3.18 µM
[8]
  GI50: 1.44 µM
  TGI: 2.75 µM
[33]
  GI50: 1.74 µM
  TGI: 3.18 µM
[9]
  GI50: 1.62 µM
  TGI: 3.01 µM
[34]
  GI50: 1.83 µM
  TGI: 3.24 µM
[35]
  GI50: 1.45 µM
  TGI: 2.89 µM
[11]
  GI50: 1.77 µM
  TGI: 3.2 µM
[36]
  GI50: 1.82 µM
  TGI: 3.35 µM
[12]
  GI50: 1.72 µM
  TGI: 3.76 µM
[37]
  GI50: 1.77 µM
  TGI: 3.18 µM
[38]
  GI50: 1.66 µM
  TGI: 3.03 µM
[39]
  GI50: 1.65 µM
  TGI: 3.1 µM
[40]
  GI50: 1.47 µM
  TGI: 2.89 µM
[41]
  GI50: 1.88 µM
  TGI: 3.3 µM
[42]
  GI50: 1.62 µM
  TGI: 2.98 µM
[15]
  GI50: 1.82 µM
  TGI: 3.21 µM
[16]
  GI50: 1.89 µM
  TGI: 3.36 µM
[17]
  GI50: 1.84 µM
  TGI: 3.31 µM
[19]
  GI50: 1.63 µM
  TGI: 3 µM
[43]
  GI50: 1.76 µM
  TGI: 3.22 µM
[20]
  GI50: 1.85 µM
  TGI: 3.51 µM
[21]
  GI50: 1.3 µM
  TGI: 2.95 µM
[24]
  GI50: 1.55 µM
  TGI: 2.89 µM
[44]
  GI50: 1.77 µM
  TGI: 3.16 µM
[25]
  GI50: 2.16 µM
  TGI: 3.85 µM
[45]
  GI50: 1.75 µM
  TGI: 3.15 µM
[46]
  GI50: 1.69 µM
  TGI: 3.06 µM
[26]
  GI50: 1.88 µM
  TGI: 3.35 µM
[47]
  GI50: 1.86 µM
  TGI: 3.26 µM
[48]
  GI50: 1.7 µM
  TGI: 3.07 µM
[27]
  GI50: 1.32 µM
  TGI: 2.6 µM
[28]
  GI50: 1.49 µM
  TGI: 3.22 µM
[49]
  GI50: 1.71 µM
  TGI: 3.12 µM
[29]
  GI50: 1.48 µM
  TGI: 2.95 µM
[50]
  GI50: 1.61 µM
  TGI: 2.97 µM
[51]
  GI50: 1.81 µM
  TGI: 3.24 µM
[52]
  GI50: 1.72 µM
  TGI: 3.1 µM
[30]
  GI50: 1.71 µM
  TGI: 3.14 µM
